# Patent publication US20250082598A1, “Melafenoxate, 2-(1-adamantylamino)ethyl 2-(4-chlorophenoxy)acetate and derivatives thereof for treating circadian rhythm sleep disorders with neurodegenerative diseases such as Alzheimer's disease” (NLS Pharmaceutics AG, priority 2021, published 2025)
# Experiments:
# [1] = molecular target: RXFP4 (h) (Homo sapiens, UniProt Q8TDU9); assay: RXFP4 assay (Eurofins/LeadHunter, cAMP Hunter GPCR Biosensor); assay type: cell-based
# Procedure: (§1) Melafenoxate is found to weakly bind with RXFP3 and RXFP4 receptors (Study FR095-0024749-Q Eurofins/leadHunter Jun. 25, 2021; unpublished data).
# (§2) In these assays' compounds were tested in agonist and antagonist mode with the GPCR Biosensor Assays and match to this design:
# (§3) • 1. CAMP Hunter cell lines were expanded from freezer stocks according to standard procedures. • 2. Cells were seeded in a total volume of 20 μL into white walled, 384-well microplates and incubated at 37° C. for the appropriate time prior to testing. • 3. cAMP modulation was determined using the DiscoverX HitHunter CAMP XS+assay.
# (§4) • 1. For agonist determination, cells were incubated with sample to induce response. • 2. Media was aspirated from cells and replaced with 15 μL 2:1 HBSS/10 mM Hepes: CAMP XS+ Ab reagent. • 3. […]
# (§5) • 1. […] Microplates were read following signal generation with a PerkinElmer Envision™ instrument for chemiluminescent signal detection.
# (§6) • 1. Compound activity was analyzed using CBIS data analysis suite (ChemInnovation, CA). • 2. For Gs agonist mode assays, percentage activity is calculated using the following formula:
# (§7) % Activity=100%×(mean RLU of test sample−mean RLU of vehicle control)/(mean RLU of MAX control−mean RLU of vehicle control). • 3. For Gs positive allosteric mode assays, percentage modulation is calculated using the following formula: http://www.eurofinsdiscoveryservices.com Confidential Jun. […]
# [2] = molecular target: T1, RXFP3 (h) (Homo sapiens, UniProt Q9NSD7); assay: RXFP3 assay (Eurofins/LeadHunter, cAMP Hunter GPCR Biosensor); assay type: cell-based
# T1 sequence (Q9NSD7 1-469): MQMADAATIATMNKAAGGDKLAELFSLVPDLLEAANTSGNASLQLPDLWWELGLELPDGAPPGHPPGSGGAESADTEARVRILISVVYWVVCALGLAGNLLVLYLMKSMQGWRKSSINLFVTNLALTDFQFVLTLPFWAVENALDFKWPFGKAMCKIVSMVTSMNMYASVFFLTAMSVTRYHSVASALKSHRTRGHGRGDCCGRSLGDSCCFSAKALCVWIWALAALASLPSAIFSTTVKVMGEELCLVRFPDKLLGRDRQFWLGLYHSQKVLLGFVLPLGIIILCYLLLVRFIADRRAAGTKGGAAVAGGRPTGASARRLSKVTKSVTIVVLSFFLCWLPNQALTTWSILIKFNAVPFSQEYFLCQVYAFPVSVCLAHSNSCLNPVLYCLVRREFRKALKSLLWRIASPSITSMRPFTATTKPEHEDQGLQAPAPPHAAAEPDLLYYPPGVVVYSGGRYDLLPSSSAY
# Procedure: as §1, §2, §3, §4, §5, §6, §7
# RXFP4 (h), sequence (Q8TDU9 whole entry): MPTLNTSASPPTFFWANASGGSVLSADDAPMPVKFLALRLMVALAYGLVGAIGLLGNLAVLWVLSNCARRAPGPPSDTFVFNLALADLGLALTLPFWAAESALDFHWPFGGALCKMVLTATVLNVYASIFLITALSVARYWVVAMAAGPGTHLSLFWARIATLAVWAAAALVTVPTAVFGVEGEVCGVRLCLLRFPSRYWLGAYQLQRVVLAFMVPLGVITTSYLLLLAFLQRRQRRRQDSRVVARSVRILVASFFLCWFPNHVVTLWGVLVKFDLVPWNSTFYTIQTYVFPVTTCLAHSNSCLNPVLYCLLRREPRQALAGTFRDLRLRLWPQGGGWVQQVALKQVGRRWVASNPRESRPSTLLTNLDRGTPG
smiles,measurement,setting,value
"O=C(COc1ccc(Cl)cc1)OCCNC12CC3CC(CC(C3)C1)C2 [Melafenoxate, 2-(1-adamantylamino)ethyl 2-(4-chlorophenoxy)acetate]",binding with RXFP4 receptor (in words),[1],weakly bind
same,% Inhibition at 5*10^−5 M,[1]; 5*10^−5 M,19.5%
same,binding with RXFP3 receptor (in words),[2],weakly bind
same,% Inhibition at 5*10^−5 M,[2]; 5*10^−5 M,29.1%
